From ChEMBL document CHEMBL4507283, “Data for DCP probe BI-1935” (2021)

Assays:
[1] = biological target: Beta-1 adrenergic receptor (Homo sapiens) (UniProt P08588); conditions: Compound concentration 10.0 uM
[2] = biological target: Tyrosine-protein kinase JAK1 (Homo sapiens) (UniProt P23458); conditions: Compound concentration 1000.0 nM
[3] = biological target: Serine/threonine-protein kinase ULK3 (Homo sapiens) (UniProt Q6PHR2); conditions: Compound concentration 1000.0 nM
[4] = biological target: G protein-coupled receptor kinase 4 (Homo sapiens) (UniProt P32298); conditions: Compound concentration 1000.0 nM
[5] = biological target: Serine/threonine-protein kinase PknB (Mycobacterium tuberculosis) (UniProt P9WI81); conditions: Compound concentration 1000.0 nM
Renin (Homo sapiens) = Renin (Homo sapiens) (UniProt P00797); assay: RENIN (HU) Eurofins-Panlabs selectivity data (BI); conditions: Compound concentration 10.0 uM
Sequence of Renin (Homo sapiens) (P00797 whole entry): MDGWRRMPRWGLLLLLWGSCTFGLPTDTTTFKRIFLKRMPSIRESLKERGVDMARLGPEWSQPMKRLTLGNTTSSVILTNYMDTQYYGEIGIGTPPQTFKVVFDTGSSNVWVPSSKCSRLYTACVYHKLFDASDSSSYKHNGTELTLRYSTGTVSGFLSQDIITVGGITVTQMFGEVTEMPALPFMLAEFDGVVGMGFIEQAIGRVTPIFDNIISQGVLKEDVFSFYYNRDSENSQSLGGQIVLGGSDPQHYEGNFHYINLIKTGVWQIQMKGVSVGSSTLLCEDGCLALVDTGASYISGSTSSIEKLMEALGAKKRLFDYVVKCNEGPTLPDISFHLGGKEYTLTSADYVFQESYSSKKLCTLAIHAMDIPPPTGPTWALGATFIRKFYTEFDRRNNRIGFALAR

[6] = biological target: SRSF protein kinase 2 (Homo sapiens) (UniProt P78362); conditions: Compound concentration 1000.0 nM
[7] = biological target: Serine/threonine-protein kinase RIO3 (Homo sapiens) (UniProt O14730); conditions: Compound concentration 1000.0 nM
[8] = biological target: Hormonally up-regulated neu tumor-associated kinase (Homo sapiens) (UniProt P57058); conditions: Compound concentration 1000.0 nM
Sequence of Hormonally up-regulated neu tumor-associated kinase (Homo sapiens) (P57058 whole entry): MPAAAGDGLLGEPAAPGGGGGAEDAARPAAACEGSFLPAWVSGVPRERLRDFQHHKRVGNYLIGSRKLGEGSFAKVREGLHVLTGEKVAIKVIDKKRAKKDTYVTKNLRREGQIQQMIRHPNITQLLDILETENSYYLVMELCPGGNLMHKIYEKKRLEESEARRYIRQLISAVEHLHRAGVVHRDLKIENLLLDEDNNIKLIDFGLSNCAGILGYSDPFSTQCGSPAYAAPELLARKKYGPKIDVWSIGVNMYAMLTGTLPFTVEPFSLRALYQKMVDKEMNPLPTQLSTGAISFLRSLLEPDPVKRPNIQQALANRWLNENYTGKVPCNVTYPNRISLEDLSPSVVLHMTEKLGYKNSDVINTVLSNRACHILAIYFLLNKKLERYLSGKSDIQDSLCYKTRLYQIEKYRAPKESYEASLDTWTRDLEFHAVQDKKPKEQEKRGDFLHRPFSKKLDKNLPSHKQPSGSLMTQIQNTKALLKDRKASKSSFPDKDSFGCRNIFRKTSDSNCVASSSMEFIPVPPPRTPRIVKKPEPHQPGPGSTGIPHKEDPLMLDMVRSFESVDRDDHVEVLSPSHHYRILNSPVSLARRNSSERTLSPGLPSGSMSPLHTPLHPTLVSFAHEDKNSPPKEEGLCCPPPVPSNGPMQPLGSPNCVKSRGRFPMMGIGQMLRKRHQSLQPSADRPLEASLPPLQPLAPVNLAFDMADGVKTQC

[9] = biological target: Calcium/calmodulin-dependent protein kinase type II subunit alpha (Homo sapiens) (UniProt Q9UQM7); conditions: Compound concentration 1000.0 nM
[10] = biological target: Serine/threonine-protein kinase Nek11 (Homo sapiens) (UniProt Q8NG66); conditions: Compound concentration 1000.0 nM
[11] = biological target: Calpain-1 catalytic subunit (Homo sapiens) (UniProt P07384); assay: MU-CALPAIN Eurofins-Panlabs selectivity data (BI); conditions: Compound concentration 10.0 uM
[12] = biological target: Serine/threonine-protein kinase Nek10 (Homo sapiens) (UniProt Q6ZWH5); conditions: Compound concentration 1000.0 nM
[13] = biological target: Tyrosine-protein kinase receptor TYRO3 (Homo sapiens) (UniProt Q06418); conditions: Compound concentration 1000.0 nM
[14] = biological target: T1, 5-hydroxytryptamine receptor 3A (Homo sapiens) (UniProt P46098); assay: 5HT3/HU Eurofins-Panlabs selectivity data (BI); conditions: Compound concentration 10.0 uM
T1 sequence (whole entry): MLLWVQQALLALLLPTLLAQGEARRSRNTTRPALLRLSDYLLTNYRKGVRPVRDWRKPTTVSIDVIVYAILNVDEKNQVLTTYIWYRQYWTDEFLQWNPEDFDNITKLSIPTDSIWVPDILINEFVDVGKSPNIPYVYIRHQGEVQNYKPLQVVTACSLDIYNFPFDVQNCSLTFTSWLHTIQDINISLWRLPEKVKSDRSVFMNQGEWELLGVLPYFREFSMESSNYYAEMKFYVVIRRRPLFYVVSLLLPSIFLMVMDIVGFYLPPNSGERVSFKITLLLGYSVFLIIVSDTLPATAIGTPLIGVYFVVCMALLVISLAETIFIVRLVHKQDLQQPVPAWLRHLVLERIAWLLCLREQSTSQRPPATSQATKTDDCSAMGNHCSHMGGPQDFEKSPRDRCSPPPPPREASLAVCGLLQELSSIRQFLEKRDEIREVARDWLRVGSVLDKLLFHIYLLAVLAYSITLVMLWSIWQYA

[15] = biological target: Serine/threonine-protein kinase ULK2 (Homo sapiens) (UniProt Q8IYT8); conditions: Compound concentration 1000.0 nM
[16] = biological target: Mitogen-activated protein kinase kinase kinase 6 (Homo sapiens) (UniProt O95382); conditions: Compound concentration 1000.0 nM
[17] = biological target: Sodium-dependent dopamine transporter (Homo sapiens, UniProt Q01959); assay: GPCRScan assay: inhibition of DAT; design: radioligand conc. used [nm] 3.6 – 16.0, parental cells stable HEK
Sequence of Sodium-dependent dopamine transporter (Q01959 whole entry): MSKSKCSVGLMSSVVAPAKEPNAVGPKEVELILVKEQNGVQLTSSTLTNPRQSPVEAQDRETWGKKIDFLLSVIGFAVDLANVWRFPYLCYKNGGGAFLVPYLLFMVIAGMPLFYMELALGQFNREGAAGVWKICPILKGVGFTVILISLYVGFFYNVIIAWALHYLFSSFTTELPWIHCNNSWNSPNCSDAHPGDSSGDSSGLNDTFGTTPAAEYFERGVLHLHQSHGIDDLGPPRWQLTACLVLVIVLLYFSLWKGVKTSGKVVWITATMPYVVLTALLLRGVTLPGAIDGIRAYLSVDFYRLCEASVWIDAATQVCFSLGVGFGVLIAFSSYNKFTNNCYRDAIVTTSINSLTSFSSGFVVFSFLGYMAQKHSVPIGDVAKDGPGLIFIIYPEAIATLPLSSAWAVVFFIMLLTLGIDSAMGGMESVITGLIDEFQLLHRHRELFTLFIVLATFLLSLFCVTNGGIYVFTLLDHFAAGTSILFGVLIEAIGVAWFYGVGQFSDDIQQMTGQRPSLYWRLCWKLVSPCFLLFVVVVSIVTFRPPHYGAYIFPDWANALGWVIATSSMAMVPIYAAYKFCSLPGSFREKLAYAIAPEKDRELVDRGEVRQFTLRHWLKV

[18] = biological target: Ephrin type-A receptor 3 (Homo sapiens) (UniProt P29320); conditions: Compound concentration 1000.0 nM
[19] = tested on: Epidermal growth factor receptor (Homo sapiens), P00533 [UNDEFINED MUTATION]; conditions: Compound concentration 1000.0 nM
[20] = biological target: Peripheral plasma membrane protein CASK (Homo sapiens) (UniProt O14936); conditions: Compound concentration 1000.0 nM
[21] = biological target: Tyrosine-protein kinase FRK (Homo sapiens) (UniProt P42685); conditions: Compound concentration 1000.0 nM
[22] = biological target: Tyrosine-protein kinase SYK (Homo sapiens) (UniProt P43405); conditions: Compound concentration 1000.0 nM
[23] = biological target: Serine/threonine-protein kinase ULK1 (Homo sapiens) (UniProt O75385); conditions: Compound concentration 1000.0 nM
[24] = biological target: Mitogen-activated protein kinase kinase kinase 4 (Homo sapiens) (UniProt Q9Y6R4); conditions: Compound concentration 1000.0 nM
[25] = biological target: NT-3 growth factor receptor (Homo sapiens) (UniProt Q16288); conditions: Compound concentration 1000.0 nM
[26] = biological target: Non-receptor tyrosine-protein kinase TYK2 (Homo sapiens) (UniProt P29597); conditions: Compound concentration 1000.0 nM
[27] = biological target: Serine/threonine-protein kinase Nek1 (Homo sapiens) (UniProt Q96PY6); conditions: Compound concentration 1000.0 nM
[28] = biological target: TRAF2 and NCK-interacting protein kinase (Homo sapiens) (UniProt Q9UKE5); conditions: Compound concentration 1000.0 nM
[29] = biological target: Mitogen-activated protein kinase 4 (Homo sapiens) (UniProt P31152); conditions: Compound concentration 1000.0 nM
Sequence of Mitogen-activated protein kinase 4 (Homo sapiens) (P31152 whole entry): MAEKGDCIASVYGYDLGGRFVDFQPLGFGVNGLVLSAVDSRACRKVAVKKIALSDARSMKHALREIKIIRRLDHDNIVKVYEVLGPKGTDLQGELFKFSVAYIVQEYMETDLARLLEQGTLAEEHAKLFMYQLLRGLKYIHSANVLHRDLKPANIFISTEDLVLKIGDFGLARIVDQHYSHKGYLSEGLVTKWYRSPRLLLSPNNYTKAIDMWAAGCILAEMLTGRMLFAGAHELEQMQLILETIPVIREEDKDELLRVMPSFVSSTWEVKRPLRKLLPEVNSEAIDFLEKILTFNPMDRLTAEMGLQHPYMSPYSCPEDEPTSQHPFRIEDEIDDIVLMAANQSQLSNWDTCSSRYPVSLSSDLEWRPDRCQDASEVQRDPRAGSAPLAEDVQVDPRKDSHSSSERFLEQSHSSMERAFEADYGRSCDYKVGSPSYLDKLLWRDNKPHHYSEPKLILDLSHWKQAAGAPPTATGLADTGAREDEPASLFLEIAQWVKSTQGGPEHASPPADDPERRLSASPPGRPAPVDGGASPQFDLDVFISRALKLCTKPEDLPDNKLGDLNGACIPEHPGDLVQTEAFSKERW

[30] = biological target: Tyrosine-protein kinase TXK (Homo sapiens) (UniProt P42681); conditions: Compound concentration 1000.0 nM
[31] = biological target: Rhodopsin kinase GRK1 (Homo sapiens) (UniProt Q15835); conditions: Compound concentration 1000.0 nM
[32] = tested on: Tyrosine-protein kinase ABL1 (Homo sapiens), P00519 [Q252H]; conditions: Compound concentration 1000.0 nM
[33] = tested on: ALK tyrosine kinase receptor (Homo sapiens), Q9UM73 [C1156Y]; conditions: Compound concentration 1000.0 nM
Sequence of ALK tyrosine kinase receptor (Homo sapiens), Q9UM73 [C1156Y] (Q9UM73 whole entry C1156Y, looked up, canonical isoform): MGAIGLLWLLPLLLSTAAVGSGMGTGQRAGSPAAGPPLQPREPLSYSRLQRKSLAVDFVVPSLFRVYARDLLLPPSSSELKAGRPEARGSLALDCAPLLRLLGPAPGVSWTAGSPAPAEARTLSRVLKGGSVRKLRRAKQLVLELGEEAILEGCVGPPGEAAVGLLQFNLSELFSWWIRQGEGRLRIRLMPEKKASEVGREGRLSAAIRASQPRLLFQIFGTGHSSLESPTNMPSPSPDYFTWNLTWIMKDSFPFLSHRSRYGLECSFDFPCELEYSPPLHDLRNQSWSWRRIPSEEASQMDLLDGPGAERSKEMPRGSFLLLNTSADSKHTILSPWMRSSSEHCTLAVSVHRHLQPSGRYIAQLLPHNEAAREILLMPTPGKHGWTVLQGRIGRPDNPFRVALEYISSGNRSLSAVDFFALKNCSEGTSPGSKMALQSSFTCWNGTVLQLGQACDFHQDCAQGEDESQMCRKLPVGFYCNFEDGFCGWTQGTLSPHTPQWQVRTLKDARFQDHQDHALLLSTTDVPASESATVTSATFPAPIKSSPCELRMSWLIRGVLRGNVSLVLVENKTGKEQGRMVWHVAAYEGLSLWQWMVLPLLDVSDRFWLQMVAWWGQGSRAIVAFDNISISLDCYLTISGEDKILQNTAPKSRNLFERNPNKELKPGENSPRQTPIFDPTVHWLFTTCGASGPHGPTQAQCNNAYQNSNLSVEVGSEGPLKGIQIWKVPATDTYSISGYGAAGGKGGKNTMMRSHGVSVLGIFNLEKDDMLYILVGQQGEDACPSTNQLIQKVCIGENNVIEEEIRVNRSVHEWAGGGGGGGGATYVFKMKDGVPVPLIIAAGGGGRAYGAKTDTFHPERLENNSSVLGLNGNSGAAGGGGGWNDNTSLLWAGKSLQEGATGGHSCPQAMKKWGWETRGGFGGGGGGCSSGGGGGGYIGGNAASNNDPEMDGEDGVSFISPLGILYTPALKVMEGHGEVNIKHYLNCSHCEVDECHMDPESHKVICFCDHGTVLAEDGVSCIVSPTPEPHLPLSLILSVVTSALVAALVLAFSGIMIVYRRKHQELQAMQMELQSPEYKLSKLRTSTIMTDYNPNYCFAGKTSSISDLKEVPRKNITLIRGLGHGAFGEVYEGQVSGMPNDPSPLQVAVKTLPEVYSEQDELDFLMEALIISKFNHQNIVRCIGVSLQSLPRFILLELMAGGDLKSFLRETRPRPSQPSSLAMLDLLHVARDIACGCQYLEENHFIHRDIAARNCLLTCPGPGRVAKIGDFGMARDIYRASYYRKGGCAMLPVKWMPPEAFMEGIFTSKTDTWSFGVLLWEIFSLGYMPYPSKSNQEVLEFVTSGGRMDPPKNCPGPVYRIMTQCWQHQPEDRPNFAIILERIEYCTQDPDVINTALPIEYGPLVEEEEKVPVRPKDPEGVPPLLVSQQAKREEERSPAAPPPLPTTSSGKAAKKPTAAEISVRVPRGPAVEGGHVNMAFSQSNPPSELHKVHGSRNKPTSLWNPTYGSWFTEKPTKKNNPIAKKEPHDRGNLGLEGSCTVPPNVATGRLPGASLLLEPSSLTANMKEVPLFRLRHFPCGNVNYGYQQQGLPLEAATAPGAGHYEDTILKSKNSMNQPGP

[34] = biological target: Phosphatidylinositol 4,5-bisphosphate 3-kinase catalytic subunit beta isoform (Homo sapiens) (UniProt P42338); conditions: Compound concentration 1000.0 nM
[35] = biological target: Death-associated protein kinase 3 (Homo sapiens) (UniProt O43293); conditions: Compound concentration 1000.0 nM
[36] = biological target: Calcium/calmodulin-dependent protein kinase type II subunit delta (Homo sapiens) (UniProt Q13557); conditions: Compound concentration 1000.0 nM
[37] = biological target: Non-receptor tyrosine-protein kinase TNK1 (Homo sapiens) (UniProt Q13470); conditions: Compound concentration 1000.0 nM

Sequence of Tyrosine-protein kinase JAK1 (Homo sapiens) (P23458 whole entry): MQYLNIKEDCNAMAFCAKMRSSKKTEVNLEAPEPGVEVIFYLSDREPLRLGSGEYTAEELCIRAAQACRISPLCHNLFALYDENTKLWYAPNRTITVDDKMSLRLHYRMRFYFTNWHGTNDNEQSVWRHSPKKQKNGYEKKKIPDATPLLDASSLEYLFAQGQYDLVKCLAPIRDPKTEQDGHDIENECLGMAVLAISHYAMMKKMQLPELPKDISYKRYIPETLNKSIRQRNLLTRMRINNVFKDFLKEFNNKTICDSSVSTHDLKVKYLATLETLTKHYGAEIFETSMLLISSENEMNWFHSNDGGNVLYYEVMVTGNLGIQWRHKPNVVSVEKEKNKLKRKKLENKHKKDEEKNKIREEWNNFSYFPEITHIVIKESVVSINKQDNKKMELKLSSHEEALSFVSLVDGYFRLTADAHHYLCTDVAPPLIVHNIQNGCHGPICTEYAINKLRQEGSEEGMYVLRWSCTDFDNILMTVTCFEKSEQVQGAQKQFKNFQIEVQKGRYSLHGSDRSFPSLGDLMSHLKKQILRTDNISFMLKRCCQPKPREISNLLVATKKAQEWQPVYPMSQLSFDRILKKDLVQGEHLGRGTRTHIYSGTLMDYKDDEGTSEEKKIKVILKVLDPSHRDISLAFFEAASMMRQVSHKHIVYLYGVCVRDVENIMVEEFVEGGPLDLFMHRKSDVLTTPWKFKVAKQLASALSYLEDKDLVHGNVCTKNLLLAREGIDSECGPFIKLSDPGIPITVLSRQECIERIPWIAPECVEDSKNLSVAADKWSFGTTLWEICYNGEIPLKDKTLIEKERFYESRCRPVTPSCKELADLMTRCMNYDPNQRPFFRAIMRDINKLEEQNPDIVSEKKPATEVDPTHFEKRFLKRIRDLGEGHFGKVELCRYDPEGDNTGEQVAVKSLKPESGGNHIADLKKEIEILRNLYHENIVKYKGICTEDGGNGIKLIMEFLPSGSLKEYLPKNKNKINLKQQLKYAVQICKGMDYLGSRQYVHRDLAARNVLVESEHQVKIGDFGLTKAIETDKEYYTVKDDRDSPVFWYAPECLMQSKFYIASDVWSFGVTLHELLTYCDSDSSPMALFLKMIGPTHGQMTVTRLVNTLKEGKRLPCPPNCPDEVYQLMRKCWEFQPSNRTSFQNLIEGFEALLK

## CCOCCn1cc(C(=O)Nc2ccc(-n3nc(-c4cccnc4)cc3C(F)(F)F)cn2)ccc1=O [BI 1935]
[1]
  inhibition: -9.69%
[2]
  residual activity: 37%
[3]
  residual activity: 61%
[4]
  residual activity: 100%
[5]
  residual activity: 95%
Renin (Homo sapiens)
  residual activity: 94%
[6]
  residual activity: 100%
[7]
  residual activity: 88%
[8]
  residual activity: 93%
[9]
  residual activity: 93%
[10]
  residual activity: 96%
[11]
  residual activity: 96%
[12]
  residual activity: 94%
[13]
  residual activity: 0%
[14]
  residual activity: 117%
[15]
  residual activity: 74%
[16]
  residual activity: 86%
[17]; read-out: Ki
  Ki: 4.48 µM
[17]; read-out: pKi (converted)
  Ki: 5.01 µM
[18]
  residual activity: 99%
[19]
  residual activity: 100%
[20]
  residual activity: 85%
[21]
  residual activity: 100%
[22]
  residual activity: 100%
[23]
  residual activity: 76%
[24]
  residual activity: 59%
[25]
  residual activity: 100%
[26]
  residual activity: 100%
[27]
  residual activity: 100%
[28]
  residual activity: 100%
[29]
  residual activity: 100%
[30]
  residual activity: 81%
[31]
  residual activity: 74%
[32]
  residual activity: 73%
[33]
  residual activity: 100%
[34]
  residual activity: 82%
[35]
  residual activity: 91%
[36]
  residual activity: 100%
[37]
  residual activity: 83%
